One block for each compound: values may come before it.
What was measured:
Cytochrome P450 3A4 [1] = molecular target: T1, Cytochrome P450 3A4 (Homo sapiens, UniProt P08684); test: Time dependent inhibition of CYP3A4 in human liver microsomes assessed as conversion of midazolam to 1'-hydroxymidazolam at 0.1 to 30 uM by LC-MS/MS analysis; type: ADME
Cytochrome P450 3A4 [2] = molecular target: T1, Cytochrome P450 3A4; test: Time dependent inhibition of CYP3A4 in human liver microsomes assessed as conversion of testosterone to 6beta-hydroxytestosterone 0.1 to 30 uM by LC-MS/MS analysis; type: ADME
CYP3A4 [3] = molecular target: T2, CYP3A4 (Homo sapiens, UniProt P08684); test: (§1) Inhibition of CYP3A4 in human liver microsomes using midazolam as substrate assessed as residual enzyme activity after 2 to 10 mins by LC-MS/MS analysis; type: ADME; settings: human, liver microsomes, probe midazolam
Cytochrome P450 3A4 [4] = molecular target: T1, Cytochrome P450 3A4; test: as §1; type: ADME
CYP3A4 [5] = molecular target: T2, CYP3A4; test: (§2) Inhibition of CYP3A4 in human liver microsomes using testosterone as substrate assessed as residual enzyme activity after 2 to 10 mins by LC-MS/MS analysis; type: ADME; settings: human, liver microsomes, probe testosterone
Cytochrome P450 3A4 [6] = molecular target: T1, Cytochrome P450 3A4; test: as §2; type: ADME
Cytochrome P450 3A4 [7] = molecular target: T1, Cytochrome P450 3A4; test: Inhibition of CYP3A4 in human liver microsomes using midazolam as substrate assessed as unbound inhibitor concentration required for half maximal enzyme inactivation after 2 to 10 mins by LC-MS/MS analysis; type: ADME
Cytochrome P450 3A4 [8] = molecular target: T1, Cytochrome P450 3A4; test: Inactivation of recombinant CYP3A4 (unknown origin) using testosterone as substrate assessed as partition ratio up to 30 uM preincubated for 5 mins followed by dialysis measured after 4 hrs; type: ADME; settings: recombinant enzyme
Cytochrome P450 3A4 [9] = molecular target: T1, Cytochrome P450 3A4; test: Time dependent inhibition of CYP3A4 in human liver microsomes using midazolam as substrate preincubated for 30 mins followed by 10-fold dilution and substrate addition by LC-MS/MS analysis; type: ADME
Cytochrome P450 3A4 [10] = molecular target: T1, Cytochrome P450 3A4; test: Time dependent inhibition of CYP3A4 in human liver microsomes using testosterone as substrate preincubated for 30 mins followed by 10-fold dilution and substrate addition by LC-MS/MS analysis; type: ADME
Cytochrome P450 3A4 [11] = molecular target: T1, Cytochrome P450 3A4; test: Time dependent inhibition of CYP3A4 in human liver microsomes using midazolam as substrate preincubated for 30 mins followed by 10-fold dilution and substrate addition by LC-MS/MS analysis in presence of NADPH; type: ADME
Cytochrome P450 3A4 [12] = molecular target: T1, Cytochrome P450 3A4; test: Time dependent inhibition of CYP3A4 in human liver microsomes using testosterone as substrate preincubated for 30 mins followed by 10-fold dilution and substrate addition by LC-MS/MS analysis in presence of NADPH; type: ADME
Cytochrome P450 3A4 [13] = molecular target: T1, Cytochrome P450 3A4; test: Inhibition of CYP3A4 in human liver microsomes using testosterone as substrate assessed as unbound inhibitor concentration required for half maximal enzyme inactivation after 2 to 10 mins by LC-MS/MS analysis; type: ADME
Cytochrome P450 3A4 [14] = molecular target: T1, Cytochrome P450 3A4; test: Ratio of Kinact to Ki for CYP3A4 in human liver microsomes using midazolam as substrate; type: ADME
Cytochrome P450 3A4 [15] = molecular target: T1, Cytochrome P450 3A4; test: Ratio of Kinact to Ki for CYP3A4 in human liver microsomes using testosterone as substrate; type: ADME
CYP3A4 [16] = molecular target: T2, CYP3A4; test: (§3) Ratio of IC50 for CYP3A4 in human liver microsomes using midazolam as substrate preincubated for 30 mins followed by 10-fold dilution and substrate addition to IC50 for CYP3A4 in human liver microsomes using midazolam as substrate preincubated for 30 mins followed by 10-fold dilution and substrate addition in presence of NADPH; settings: probe midazolam, read-out: Ratio IC50
CYP3A4 [17] = molecular target: T2, CYP3A4; test: as §3, with “testosterone” for “midazolam”; settings: probe testosterone, read-out: Ratio IC50
Cytochrome P450 3A4 [18] = molecular target: T1, Cytochrome P450 3A4; test: Inactivation of recombinant CYP3A4 (unknown origin) using midazolam as substrate assessed as partition ratio up to 30 uM preincubated for 5 mins followed by dialysis measured after 4 hrs; type: ADME; settings: recombinant enzyme
Cytochrome P450 3A4 [19] = molecular target: T1, Cytochrome P450 3A4; test: Drug metabolism assessed as recombinant CYP3A4 (unknown origin)-mediated (R)-N-(1-(3-(3,4-dihydroxyphenyl)-4-oxo-3,4-dihydropyrido[2,3-d]pyrimidin-2-yl)ethyl)-N-(pyridin-3-ylmethyl)-2-(4-(trifluoromethoxy)phenyl)acetamide formation preincubated for 5 mins followed NADPH addition measured after 45 mins by TIC mass chromatographic analysis in presence of GSH; type: ADME; settings: recombinant enzyme, 0.75 h
Cytochrome P450 3A4 [20] = molecular target: T1, Cytochrome P450 3A4; test: Drug metabolism assessed as recombinant CYP3A4 (unknown origin)-mediated (R)-N-(1-(3-(2,4-dihydroxyphenyl)-4-oxo-3,4-dihydropyrido[2,3-d]pyrimidin-2-yl)ethyl)-N-(pyridin-3-ylmethyl)-2-(4-(trifluoromethoxy)phenyl)acetamide formation preincubated for 5 mins followed NADPH addition measured after 45 mins by TIC mass chromatographic analysis in presence of GSH; type: ADME; settings: recombinant enzyme, 0.75 h
Cytochrome P450 3A4 [21] = molecular target: T1, Cytochrome P450 3A4; test: Drug metabolism assessed as recombinant CYP3A4 (unknown origin)-mediated compound formation treated with [3H]-(R)-N-(1-(3-(4-hydroxyphenyl)-4-oxo-3,4-dihydropyrido[2,3-d]pyrimidin-2-yl)ethyl)-N-(pyridin-3-ylmethyl)-2-(4-(trifluoromethoxy)phenyl)acetamide preincubated for 5 mins followed NADPH addition measured after 45 mins by TIC mass chromatographic analysis in presence of GSH; type: ADME; settings: recombinant enzyme, 0.75 h
Cytochrome P450 3A4 [22] = molecular target: T1, Cytochrome P450 3A4; test: Drug metabolism assessed as recombinant CYP3A4 (unknown origin)-compound formation treated with (R)-N-(1-(3-(4-hydroxyphenyl)-4-oxo-3,4-dihydropyrido[2,3-d]pyrimidin-2-yl)ethyl)-N-([2-3H]pyridin-3-ylmethyl)-2-(4-(trifluoromethoxy)phenyl)acetamide preincubated for 5 mins followed NADPH addition measured after 45 mins by TIC mass chromatographic analysis; type: ADME; settings: recombinant enzyme, 0.75 h

T2 sequence (P08684 whole entry): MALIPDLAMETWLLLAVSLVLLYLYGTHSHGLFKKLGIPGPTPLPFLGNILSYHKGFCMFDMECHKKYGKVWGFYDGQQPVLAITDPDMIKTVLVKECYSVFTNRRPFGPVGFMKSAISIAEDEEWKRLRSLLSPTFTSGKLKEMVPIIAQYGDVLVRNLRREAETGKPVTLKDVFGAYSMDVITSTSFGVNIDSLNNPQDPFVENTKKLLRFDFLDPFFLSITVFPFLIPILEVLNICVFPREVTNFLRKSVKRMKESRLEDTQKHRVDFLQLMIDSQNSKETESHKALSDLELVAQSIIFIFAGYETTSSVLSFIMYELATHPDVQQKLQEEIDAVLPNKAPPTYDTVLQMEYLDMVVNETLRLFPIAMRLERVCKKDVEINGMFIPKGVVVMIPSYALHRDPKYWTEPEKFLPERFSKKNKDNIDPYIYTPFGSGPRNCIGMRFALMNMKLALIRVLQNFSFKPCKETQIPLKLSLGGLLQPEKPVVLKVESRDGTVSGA
T1 sequence (P08684 whole entry): as above

Drug metabolism (Cytochrome P450 3A4 [22]): metabolite_detected
Structure (SMILES): C[C@H](c1nc2ncccc2c(=O)n1-c1cc(O)c(O)cc1SC[C@H](NC(=O)[C@@H](N)CCC(=O)O)C(=O)NCC(=O)O)N(Cc1cccnc1)C(=O)Cc1ccc(OC(F)(F)F)cc1

Drug metabolism (Cytochrome P450 3A4 [22]): metabolite_detected
Structure (SMILES): C[C@H](c1nc2ncccc2c(=O)n1-c1cc(O)c(O)c(SC[C@H](NC(=O)[C@@H](N)CCC(=O)O)C(=O)NCC(=O)O)c1)N(Cc1cccnc1)C(=O)Cc1ccc(OC(F)(F)F)cc1

Drug metabolism (Cytochrome P450 3A4 [22]): metabolite_detected
Structure (SMILES): C[C@H](c1nc2ncccc2c(=O)n1-c1cc(SC[C@H](NC(=O)[C@@H](N)CCC(=O)O)C(=O)NCC(=O)O)c(O)cc1O)N(Cc1cccnc1)C(=O)Cc1ccc(OC(F)(F)F)cc1

Drug metabolism (Cytochrome P450 3A4 [22]): metabolite_detected
Structure (SMILES): CC(c1nc2ncccc2c(=O)n1-c1ccc(O)c(O)c1SC[C@H](NC(=O)[C@@H](N)CCC(=O)O)C(=O)NCC(=O)O)N(Cc1cccnc1)C(=O)Cc1ccc(OC(F)(F)F)cc1 (single isomer, unassigned)

Drug metabolism (Cytochrome P450 3A4 [22]): metabolite_detected
Structure (SMILES): CC(c1nc2ncccc2c(=O)n1-c1ccc(O)c(SC[C@H](NC(=O)[C@@H](N)CCC(=O)O)C(=O)NCC(=O)O)c1O)N(Cc1cccnc1)C(=O)Cc1ccc(OC(F)(F)F)cc1 (single isomer, unassigned)

Further lines, the compound ahead of its results:

Structure (SMILES): C[C@H](c1nc2ncccc2c(=O)n1-c1ccc(O)cc1)N(Cc1cccnc1)C(=O)Cc1ccc(OC(F)(F)F)cc1
inhibition (INH) (Cytochrome P450 3A4 [1]): Active
inhibition (INH) (Cytochrome P450 3A4 [2]): Active
kinact (CYP3A4 [3]): 0.00147 s⁻¹
Ki (Cytochrome P450 3A4 [4]): 1900 nM
kinact (CYP3A4 [5]): 0.00165 s⁻¹
Ki (Cytochrome P450 3A4 [6]): 1900 nM
Ki (Cytochrome P450 3A4 [7]): 730 nM
Ratio (Cytochrome P450 3A4 [8]): 36
IC50 (Cytochrome P450 3A4 [9]): 650 nM
IC50 (Cytochrome P450 3A4 [10]): 2100 nM
IC50 (Cytochrome P450 3A4 [11]): 27 nM
IC50 (Cytochrome P450 3A4 [12]): 68 nM
Ki (Cytochrome P450 3A4 [13]): 740 nM
Ratio (Cytochrome P450 3A4 [14]): 0.12 mL/min/nmol
Ratio (Cytochrome P450 3A4 [15]): 0.13 mL/min/nmol
IC50 shift at 30 min (CYP3A4 [16]): 24
IC50 shift at 30 min (CYP3A4 [17]): 31
Ratio (Cytochrome P450 3A4 [18]): 36

Structure (SMILES): [3H]c1ncccc1CN(C(=O)Cc1ccc(OC(F)(F)F)cc1)[C@H](C)c1nc2ncccc2c(=O)n1-c1ccc(O)cc1
Drug metabolism (Cytochrome P450 3A4 [19]): metabolite_detected
Drug metabolism (Cytochrome P450 3A4 [20]): metabolite_detected

Structure (SMILES): C[C@H](c1nc2ncccc2c(=O)n1-c1ccc(O)cc1)N(Cc1ccc[n+]([O-])c1)C(=O)Cc1ccc(OC(F)(F)F)cc1
Drug metabolism (Cytochrome P450 3A4 [21]): metabolite_detected

Structure (SMILES): C[C@H](c1nc2ncccc2c(=O)n1-c1ccc(O)c(O)c1)N(Cc1cccnc1)C(=O)Cc1ccc(OC(F)(F)F)cc1
Drug metabolism (Cytochrome P450 3A4 [22]): metabolite_detected

Structure (SMILES): C[C@H](c1nc2ncccc2c(=O)n1-c1ccc(O)cc1O)N(Cc1cccnc1)C(=O)Cc1ccc(OC(F)(F)F)cc1
Drug metabolism (Cytochrome P450 3A4 [22]): metabolite_detected

Structure (SMILES): C[C@H](c1nc2ncccc2c(=O)n1-c1c(O)cc(O)cc1SC[C@H](NC(=O)[C@@H](N)CCC(=O)O)C(=O)NCC(=O)O)N(Cc1cccnc1)C(=O)Cc1ccc(OC(F)(F)F)cc1
Drug metabolism (Cytochrome P450 3A4 [22]): metabolite_detected

Source: ChEMBL document CHEMBL3526064, “Sequential metabolism of AMG 487, a novel CXCR3 antagonist, results in formation of quinone reactive metabolites that covalently modify CYP3A4 Cys239 and cause time-dependent inhibition of the enzyme” (Drug Metab Dispos, 2012)
